Our source for the IC50 values is US6596878B2, “Methods and compositions for inhibiting cell proliferative disorders” (Yissum Research & Development Company of the Hebrew …, priority 1994, dated 2003).

Like-named read-outs stand apart in the source and are kept apart here.

Common to all, as to type: cell-based
One assay addresses T1, human EGF receptor (Homo sapiens, UniProt P00533).
T1 construct: expressed in transfected cells; host or cells: NIH3T3 clone C7 (EGFR/C7; mouse fibroblasts)
Description: EGF-receptor whole cell kinase assay (EGFR-3T3). The protocol:
(§1) The following target cells were used for cellular kinaseassays: NIH3T3 clone C7 (Honegger et al., supra) engineered to over-express human EGF receptor; NIH3T3 cells engineered to over-express a chimeric receptor containing the EGFR extracellular domain and the HER2 intracellular kinase domain; the human mammary carcinoma line BT474 (ATCC HTB2) expressing HER2; and the human glioblastoma line U1242 that expresses PDGFR-β. Growth assays were carried out using human mammary epithelial SKBR3 (ATCC HTB30) cells, SKOV3 (ATCC HTB77) human ovarian cancer cell line, A431 cells, MCF7 human breast carcinoma cells, MCF7 cells overexpress the HER2 kinase (MCF7-HER2), NIH3T3 cells, and NIH3T3 cells overexpressing the HER2 kinase (3T3-HER2).
Unless otherwise stated the effect of various compounds on receptor tyrosine kinases were assayed as described in this section.
1. EGF-receptor Whole Cell Kinase Assay
EGFR kinase activity (EGFR-3T3 assay) in whole cells was measured as described below:
The following protocol was used:
A. Coat ELISA plates (Corning, 96 well, Cat. #25805-96) with 05-101 antibody at 0.5 μg per well in PBS, 150 μl final volume/well, and store overnight at 4° C. Coated plates are good for up to 10 days when stored at 4° C.
B. On day of use, remove coating buffer and replace with blocking buffer (5% Carnation Instant Non-Fat Dry Milk in PBS). Incubate the plate, shaking, at room temperature (about 23° C. to 25° C.) for 30 minutes. Just prior to use, remove blocking buffer and wash plate 4 times with TBST buffer.
A. EGFR/C7 cell line (Honegger, et al., Cell 51:199-209, 1987) can be use for this assay.
B. Choose dishes having 80-90% confluence for the experiment. Trypsinize cells and stop reaction by adding 10% CS DMEM medium. Suspend cells in DMEM medium (10% CS DMEM medium) and centrifuge once at 1000 rpm, and once at room temperature for 5 minutes.
C. Resuspend cells in seeding medium (DMEM, 0.5% bovine serum), and count the cells using trypan blue. Viability above 90% is acceptable. Seed cells in DMEM medium (0.5% bovine serum) at a density of 10,000 cells per well, 100 μl per well, in a 96 well microtiter plate. Incubate seeded cells in 5% CO2 at 37° C. for about 40 hours.
A. Check seeded cells for contamination using an inverted microscope. Dilute drug stock (10 mg/ml in DMSO) 1:10 in DMEM medium, then transfer 5 μl to a test well for a final drug dilution of 1:200 and a final DMSO concentration of […]. Control wells receive DMSO alone. Incubate in 5% CO2 at 37° C. for one hour.
B. Prepare EGF ligand: dilute stock EGF in DMEM so that upon transfer of 10 μl dilute EGF (1:12 dilution), 25 nM final concentration is attained.
C. Prepare fresh HNTG* sufficient for 100 μl per well; and place on ice.
D. After two hours incubation with drug, add prepared EGF ligand to cells, 10 μl per well, to yield a final concentration of 25 nM. Control wells receive DMEM alone. Incubate, shaking, at room temperature, for 5 minutes.
E. Remove drug, EGF, and DMEM. Wash cells twice with PBS. Transfer HNTG* to cells, 100 μl per well. Place on ice for 5 minutes. Meanwhile, remove blocking buffer from other ELISA plate and wash with TBST as described above.
F. With a pipette tip securely fitted to a micropipettor, scrape cells from plate and homogenize cell material by repeatedly aspirating and dispensing the HNTG* lysis buffer. Transfer lysate to a coated, blocked, and washed ELISA plate. Incubate shaking at room temperature for one hour.
G. Remove lysate and wash 4 times with TBST. Transfer freshly diluted anti-Ptyr antibody to ELISA plate at 100 μl per well. Incubate shaking at room temperature for 30 minutes in the presence of the anti-Ptyr antiserum (1:3000 dilution in TBST).
H. Remove the anti-Ptyr antibody and wash 4 times with TBST. Transfer the freshly diluted TAGO anti-rabbit IgG antibody to the ELISA plate at 100 μl per well.

The target in a further assay is T2, HER2 (Homo sapiens, UniProt P04626).
T2 construct: the human mammary carcinoma line BT474 (ATCC HTB2) expressing HER2; endogenous in cells; host or cells: BT474 human mammary carcinoma cells
The experiment in a line: HER2-BT474 whole cell kinase ELISA. The protocol:
HER2-BT474 assays measuring whole cell HER2 activity was carried out as described below:
All the following steps are at room temperature and aseptically, unless stated otherwise. All ELISA plate washing is by rinsing with distilled water three times and once with TBST.
Incubate the cells in 5% CO2 at 37° C. overnight.
2. ELISA Plate Coating and Blocking

A further assay concerns A431 cells. Description: A431 growth assay (sulphorhodamine B). To be noted: Homo sapiens, A-431, 96 h; Table V; 4 days, SRB; read-out: Estimated IC50 Growth Assays A431 cells.
Excerpt: as §1, with “This example illustrates the ability of the exemplary compounds to inhibit receptor tyrosine kinases, such as HER2 and/or EGFR. The” for “The”
SKBR3 cells over-express HER2. A431 cells over-express EGFR. These cells were dispensed into 96-well plates with test compounds. After 4 days the monolayers were TCA-fixed then stained with sulphorhodamine B. The absorbance versus log drug concentration was plotted and IC50 values estimated.
(4) Tris, crystallized free base—Fisher Catalog #BP152 Working solution: 10 mM tris=1.211 gram Trizma base/liter H2O. […]
(11) Read optical density at dual wavelength mode 570 nm and 630 nm on Dynatech ELISA plate reader, Model MR 5000.

T1 sequence (P00533 25-1210): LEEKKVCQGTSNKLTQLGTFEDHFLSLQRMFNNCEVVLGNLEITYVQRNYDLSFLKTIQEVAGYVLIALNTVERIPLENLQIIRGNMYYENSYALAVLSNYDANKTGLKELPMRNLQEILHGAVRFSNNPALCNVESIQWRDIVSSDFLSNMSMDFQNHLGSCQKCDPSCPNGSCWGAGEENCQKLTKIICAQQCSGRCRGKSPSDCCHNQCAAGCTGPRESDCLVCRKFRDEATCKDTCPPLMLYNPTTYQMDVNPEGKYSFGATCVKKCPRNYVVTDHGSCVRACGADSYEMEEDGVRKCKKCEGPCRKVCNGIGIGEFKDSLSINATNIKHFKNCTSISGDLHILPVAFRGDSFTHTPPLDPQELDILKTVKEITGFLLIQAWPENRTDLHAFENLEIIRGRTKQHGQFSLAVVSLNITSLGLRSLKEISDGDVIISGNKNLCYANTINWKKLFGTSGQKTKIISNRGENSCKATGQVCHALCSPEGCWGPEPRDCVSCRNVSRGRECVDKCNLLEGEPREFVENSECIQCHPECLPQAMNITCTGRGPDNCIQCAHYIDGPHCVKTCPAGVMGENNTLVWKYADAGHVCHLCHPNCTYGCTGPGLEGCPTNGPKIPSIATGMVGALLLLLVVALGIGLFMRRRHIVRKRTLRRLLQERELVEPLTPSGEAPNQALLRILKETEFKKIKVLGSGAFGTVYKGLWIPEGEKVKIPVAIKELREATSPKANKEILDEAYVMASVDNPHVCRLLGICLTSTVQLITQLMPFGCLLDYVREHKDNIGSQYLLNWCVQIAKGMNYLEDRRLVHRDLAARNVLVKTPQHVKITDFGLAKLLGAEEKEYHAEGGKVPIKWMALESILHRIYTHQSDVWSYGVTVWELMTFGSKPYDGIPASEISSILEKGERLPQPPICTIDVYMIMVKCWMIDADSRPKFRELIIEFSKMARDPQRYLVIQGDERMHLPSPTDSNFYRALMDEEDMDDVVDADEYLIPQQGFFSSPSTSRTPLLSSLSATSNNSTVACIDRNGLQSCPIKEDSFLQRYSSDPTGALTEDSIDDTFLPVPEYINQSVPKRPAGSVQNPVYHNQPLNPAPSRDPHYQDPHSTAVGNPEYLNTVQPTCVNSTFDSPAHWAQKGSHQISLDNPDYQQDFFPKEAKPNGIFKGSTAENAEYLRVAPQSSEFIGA
T2 sequence (P04626 23-1255): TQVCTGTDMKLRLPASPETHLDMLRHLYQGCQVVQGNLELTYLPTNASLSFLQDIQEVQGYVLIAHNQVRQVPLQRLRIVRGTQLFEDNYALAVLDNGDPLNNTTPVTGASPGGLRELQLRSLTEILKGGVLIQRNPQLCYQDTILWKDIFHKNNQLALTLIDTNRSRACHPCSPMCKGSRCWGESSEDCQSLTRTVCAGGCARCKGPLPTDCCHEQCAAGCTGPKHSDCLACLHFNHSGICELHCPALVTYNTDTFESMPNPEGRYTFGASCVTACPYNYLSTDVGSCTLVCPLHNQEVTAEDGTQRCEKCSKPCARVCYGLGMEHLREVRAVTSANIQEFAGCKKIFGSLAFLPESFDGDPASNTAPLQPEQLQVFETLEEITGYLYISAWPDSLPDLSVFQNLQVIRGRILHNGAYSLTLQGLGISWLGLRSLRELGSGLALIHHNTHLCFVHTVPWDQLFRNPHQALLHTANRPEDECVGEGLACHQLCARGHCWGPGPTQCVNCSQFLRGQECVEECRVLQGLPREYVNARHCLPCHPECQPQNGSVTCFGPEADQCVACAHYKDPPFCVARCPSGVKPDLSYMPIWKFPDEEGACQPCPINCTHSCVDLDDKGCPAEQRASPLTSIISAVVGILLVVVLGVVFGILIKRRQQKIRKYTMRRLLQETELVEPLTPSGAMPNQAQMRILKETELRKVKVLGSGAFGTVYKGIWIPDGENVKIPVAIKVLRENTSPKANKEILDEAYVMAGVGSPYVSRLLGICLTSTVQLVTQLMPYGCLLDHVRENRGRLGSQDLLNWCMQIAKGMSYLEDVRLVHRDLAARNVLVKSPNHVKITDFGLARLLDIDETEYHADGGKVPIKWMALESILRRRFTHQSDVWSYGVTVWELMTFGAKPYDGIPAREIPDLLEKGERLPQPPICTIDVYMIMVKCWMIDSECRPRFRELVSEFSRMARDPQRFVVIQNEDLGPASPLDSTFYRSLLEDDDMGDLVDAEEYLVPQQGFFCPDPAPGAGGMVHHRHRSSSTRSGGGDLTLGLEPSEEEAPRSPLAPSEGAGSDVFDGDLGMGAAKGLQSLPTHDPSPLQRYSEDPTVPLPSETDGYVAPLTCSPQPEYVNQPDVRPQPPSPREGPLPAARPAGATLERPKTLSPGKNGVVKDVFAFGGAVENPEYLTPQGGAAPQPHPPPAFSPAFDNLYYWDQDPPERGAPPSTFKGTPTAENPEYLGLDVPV

For `Cc1ccc2ncnc(Nc3cccc(Cl)c3)c2c1` [Compound P12a], the IC50 at human EGF receptor (Table III, cellular kinase assay, class symbol, read-out: EGFR) is below 50 µM; at human EGF receptor (Table V, read-out: Estimated IC50 Cellular Kinase Assays EGFR (EGF-3T3)), 0.04 µM; on HER2 (Table III, cellular kinase assay, class symbol, read-out: HER2), below 50 µM; on HER2 (Table V, read-out: Estimated IC50 Cellular Kinase Assays HER2 (BT474)), 7.14 µM; with A431 cells, 10 µM.
